# Measured values taken from US5045543A, “5-amino or substituted amino 1,2,3-triazoles useful as antimetastatic agents” (Merck & Co., Inc., priority 1989, dated 1991).
# Tests used:
# [1] = test system: PAPp26 Murine Keratinocytes; conditions: proliferation assay
# Protocol: In these experiments Murine keratinocyte transformed cell line PAPp26 was cultured in Dulbecco's modified Eagle's medium with 10% fetal calf serum at 37° C., 5% CO2. Each well of a 96 well plate was seeded with 2000 cells in 200 μl of each drug dilution in duplicate. A plate was stopped and fixed for each time point, stained with Giemsa and then read in a Titertek plate reader at 650 nm, and the absorbances were calibrated with known cell numbers on control plates.
# [2] = test system: pig skin epidermal basal cells (keratinocytes); assay: UV induced hyperproliferation in pig skin in vivo (topical antiproliferative activity)
# Protocol: The topical antiproliferative activities, along with in vitro antiproliferative activities against human keratinocytes and fibroblasts, provide the biological data in support of the claimed utility:
# In one experiment, a 20 kg pig was sedated and multiple areas of clipped skin were exposed to uv radiation sufficient to provoke a moderate hyperproliferative response within several days of exposure. On days 0, 1, 2 and 3 replicate irradiated sites were treated topically with Compound A in several vehicles or solvents. Topical preparations included a 2% drug in Gel #1, a combination of isopropyl myristate:Crodamol:ethanol, 1:1:2, or DMSO. The hyperproliferative response of the skin to uv was assessed on day 4 by injecting ^3 H-thymidine intradermally, and, 1 hour later, removing the sites by punch biopsy and processing the samples for autoradiography. Such autoradiographs indicate the number of epidermal cells in S phase synthesizing DNA and this is a common tool used by dermatologists to assess inhibition of proliferation in vivo. A single injection of methotrexate, 4 hours prior to ^3 H-thymidine injection was used as a positive control for inhibition of DNA synthesis. A labelling index, L.I., which is the percent of the total number of epidermal basal cells (keratinocytes) counted showing label incorporation. Four days after exposure to uv, the L.I. of pig skin increased from 7.6% to 20.8% (normal human skin ca. 2%, psoriatic lesions ca. 25%, for comparison).
# psoriasis = conditions: cited from earlier work; for side effects in psoriasis treatment: in vivo; for efficacy in psoriasis: mycophenolic acid given orally; for clearing of psoriatic lesions: used experimentally
Structure (SMILES),ED50 PAPp26 [1],side effects in psoriasis treatment (psoriasis),efficacy in psoriasis (psoriasis),also measured
NC(=O)c1nnn(Cc2cc(Cl)c(C(=O)c3ccc(Cl)cc3)c(Cl)c2)c1N [(B)],2 µg/mL,–,–,–
NC(=O)c1nnn(Cc2ccc(Sc3ccc(Cl)cc3)c(Cl)c2)c1N [(C)],1 to 2 µg/mL,–,–,–
NC(=O)c1nnn(Cc2ccc(Sc3ccc(Cl)cc3)c(C(F)(F)F)c2)c1N [(D)],1 to 2 µg/mL,–,–,–
Cc1cc(Cn2nnc(C(N)=O)c2N)cc(Cl)c1C(=O)c1ccc(C(F)(F)F)cc1 [(E)],2 µg/mL,–,–,–
N#Cc1ccc(C(=O)c2c(Cl)cc(Cn3nnc(C(N)=O)c3N)cc2Cl)cc1 [(F)],2 µg/mL,–,–,–
NC(=O)c1nnn(Cc2cc(Cl)c(C(=O)c3ccc(Cl)cc3)c(Br)c2)c1N [(G)],2 µg/mL,–,–,–
NC(=O)c1nnn(Cc2cc(Cl)c(Oc3ccc(Br)cc3)c(Cl)c2)c1N [(H)],1 to 2 µg/mL,–,–,–
NC(=O)c1nnn(Cc2cc(Cl)c(C(=O)c3ccc(Br)cc3)c(Cl)c2)c1N [(J)],1 to 2 µg/mL,–,–,–
NC(=O)c1nnn(Cc2cc(Cl)c(Oc3ccc([N+](=O)[O-])cc3)c(Cl)c2)c1N [(K)],2 µg/mL,–,–,–
Cc1cc(Cn2nnc(C(N)=O)c2N)cc(Cl)c1Oc1ccc(Cl)cc1 [(L)],2 µg/mL,–,–,–
"CN(Cc1cnc2nc(N)nc(N)c2n1)c1ccc(C(=O)N[C@@H](CCC(=O)O)C(=O)O)cc1 [Methotrexate, methotrexate, reference compound]",–,unacceptable side effects due to toxicity,effective in treating the disease,"UV induced hyperproliferation, % Inhibition ([2]; i.d. injection): 93%; Labelled Cells ([2]; i.d., single injection 4 hours prior to 3H-thymidine, of 1175 basal cells counted): 100; LI (labelling index) ([2]; i.d., uv exposed Gel #1 control 20.8, normal 7.6): 8.5%"
COc1c(C)c2c(c(O)c1C/C=C(\C)CCC(=O)O)C(=O)OC2 [Mycophenolic acid],–,unacceptable side effects,controls psoriasis by causing remission when given orally,clearing of psoriatic lesions (psoriasis): success in clearing lesions
O=C(O)C[C@H](NC(=O)CP(=O)(O)O)C(=O)O [N-phosphonacetyl-L-aspartate],–,unacceptable side effects due to toxicity,effective in treating the disease,–
O=c1[nH]cc(F)c(=O)[nH]1 [fluorouracil],–,unacceptable side effects due to toxicity,effective in treating the disease,–
Nc1nc2nc[nH]c2c(=S)[nH]1 [thioguanine],–,unacceptable side effects due to toxicity,effective in treating the disease,clearing of psoriatic lesions (psoriasis): success in clearing lesions
